Reference: patent US5660842A, “Inhibition of helicobacter” (Bristol-Myers Squibb Company, priority 1995, dated 1997)
In brackets after ≈: the same amount, converted by molar mass. Where two headings read alike, the source gives them in different places.

How the values were obtained:
Helicobacter pylori [1] = assay: Viability of H. pylori after 1 hour in prototype nutritional compositions containing FFA or MG (Example 3, Table 6); assay type: cell-based, Helicobacter pylori (ATCC 43629); details: for Change in viable cell number: 1 hour
Helicobacter pylori [2] = assay: Minimal inhibitory concentration (MIC) for H. pylori (Example 5); assay type: cell-based; details: Helicobacter pylori, read-out: MIC
Helicobacter pylori [3] = assay type: cell-based, Helicobacter pylori (HP-2, HP-4, HP-5); details: for Frequency of resistant mutants (number of spontaneous mutants): ~1 × 10^8 CFU
Helicobacter pylori [4] = assay: Bactericidal activity of MG and FFA of varying chain length (Example 4, FIG. 1); assay type: cell-based, Helicobacter pylori HP-4 (ATCC 43629); details: FFA tested C4:0 to C17:0; 1 hour
[5] = concentrations as low as two times the MIC

For `CCCCCCCCCCCC(=O)O` [Lauric Acid, lauric acid], the “Change in viable cell number” value (Helicobacter pylori [1]; Nutrament (Formulation II), 20 mM) was -0.42 LOG CFU/mL, the “Change in viable cell number” value (Helicobacter pylori [1]; Sustacal (Formulation I), 5 mM) was 0.00 LOG CFU/mL and the “Change in viable cell number” value (Helicobacter pylori [1]; Sustacal (Formulation I), 10 mM) was 0.05 LOG CFU/mL. The “Change in viable cell number” value (Helicobacter pylori [1]; Sustacal (Formulation I), 20 mM) was -3.33 LOG CFU/mL, the “Change in viable cell number” value (Helicobacter pylori [1]; Ultracal (Formulation III), 5 mM) was 0.33 LOG CFU/mL and the “Change in viable cell number” value (Helicobacter pylori [1]; Ultracal (Formulation III), 10 mM) was -1.05 LOG CFU/mL. For the same compound, the “Change in viable cell number” value (Helicobacter pylori [1]; Ultracal (Formulation III), 20 mM) was -3.96 LOG CFU/mL, the “Inhibition in nutritional compositions” value (Helicobacter pylori [1]; lower levels than 20 mM) was “not inhibitory” and the MIC (Helicobacter pylori [2]; Table 7) was 50 µg/mL (≈ 250 µM). For the same compound, the MIC (Helicobacter pylori [2]; preliminary studies) was ~50 µg/mL (≈ 250 µM), the Frequency of resistance (Helicobacter pylori [3]; [5]) was < 1×10^-8 and the “Resistant variants of H. pylori” value (Helicobacter pylori [3]; [5]) was “no resistant variants of H. pylori were found”. The “Frequency of resistant mutants (number of spontaneous mutants)” value (from here on “Frequency of resistant mutants”) (Helicobacter pylori [3]; strain 43529 (so in the source), 2 × MIC) was < 1, the “Frequency of resistant mutants” value (Helicobacter pylori [3]; strain 43529 (so in the source), 5 × MIC) was < 1 and the “Frequency of resistant mutants” value (Helicobacter pylori [3]; strain 43529 (so in the source), 10 × MIC) was < 1. The “Frequency of resistant mutants” value (Helicobacter pylori [3]; strain 43579, 2 × MIC) was < 1, the “Frequency of resistant mutants” value (Helicobacter pylori [3]; strain 43579, 5 × MIC) was < 1 and the “Frequency of resistant mutants” value (Helicobacter pylori [3]; strain 43579, 10 × MIC) was < 1. For the same compound, the “Frequency of resistant mutants” value (Helicobacter pylori [3]; strain 49503, 2 × MIC) was < 1, the “Frequency of resistant mutants” value (Helicobacter pylori [3]; strain 49503, 5 × MIC) was < 1 and the “Frequency of resistant mutants” value (Helicobacter pylori [3]; strain 49503, 10 × MIC) was < 1. The “Bactericidal activity for H. pylori” value (Helicobacter pylori [4]) was “showed bactericidal activity”.
